Columns and labels:
[1] = system: Probable mesothelioma (pleural effusion); assay: MiCK assay, drug-induced apoptosis, Table 3 tumor A2; assay type: cell-based, human; settings: Table 3 tumor A2: Probable mesothelioma (pleural effusion); 48 hours with drug
Protocol: (§1) Data were obtained optically using Mie light-scattering.
When the optimal cell concentration is reached, put the cells in the plate and incubate overnight in the incubating chamber of the incubator (37° C.).

[2] = system: Lung adenocarcinoma (site B); assay: MiCK assay, drug-induced apoptosis, Table 4 tumor C2; settings: Table 4 tumor C2: Lung adenocarcinoma (site B); 48 hours with drug
Protocol: (§4) After overnight incubation, chemotherapy drugs were added to the wells of the 96-well plate in 5 μL aliquots or to the wells of a 384-well plate in 2.5 μL aliquots using an automated pipettor. The number of drugs or drug combinations and the number of concentrations tested depended on the number of viable malignant cells that were isolated from the tumor specimen. The drug concentrations, determined by molarity, were those indicated by the manufacturer as the desired blood level concentration plus or minus one serial dilution if enough cells were available.
(§5) Following drug addition, the plate was incubated for 30 min. at 37° C. in a 5% carbon dioxide humidified atmosphere incubator. Each well was then overlayed with sterile mineral oil, and the plate was placed into the incubator chamber of a microplate spectrophotometric reader. The optical density at 600 nanometers was read and recorded every 5 minutes over a period of 48 hours. Optical density increases, which correlates with apoptosis, were converted to kinetic units (KU) of apoptosis by a proprietary software ProApo with a formula described in the Kravtsov reference incorporated by reference (i.e. Kravtsov V. et al. “Use of the Microculture Kinetic Assay of apoptosis to determine chemosensitivities of leukemias.” Blood 1998; 92:968-980).
(§6) Purified tumor cells were cultured for 48 hours with individual drugs, and drug-induced apoptosis was measured using the MiCK assay as described in Example 1. Data were obtained optically using Mie light-scattering.

[3] = system: NSCLC, multi-focal, recurrent adenocarcinoma (site B); assay: MiCK assay, drug-induced apoptosis, Table 3 tumor C2; assay type: cell-based, human; settings: Table 3 tumor C2: NSCLC, multi-focal, recurrent adenocarcinoma (site B); 48 hours with drug
Excerpt: as §1
(§2) Do a test well. […] Look at the well under the inverted microscope. […] Repeat until optimal cell concentration is found. Plate the cells into the wells.

[4] = system: Pancreatic islet cell cancer (primary tumor); assay: MiCK assay, drug-induced apoptosis, Table 4 tumor A2; settings: 48 hours with drug
Protocol: as §4, §5, §6

[5] = system: NSCLC, multi-focal, recurrent adenocarcinoma (site A); assay: MiCK assay, drug-induced apoptosis, Table 3 tumor C1; assay type: cell-based, human; settings: Table 3 tumor C1: NSCLC, multi-focal, recurrent adenocarcinoma (site A); 48 hours with drug
Excerpt: as §1, §2

[6] = system: NSCLC, bilateral well-differentiated adenocarcinoma (site 1A); assay: MiCK assay, drug-induced apoptosis, Table 3 tumor B1; assay type: cell-based, human; settings: Table 3 tumor B1: NSCLC, bilateral well-differentiated adenocarcinoma (site 1A); 48 hours with drug
Excerpt: as §1, §2

[7] = system: Pancreatic islet cell cancer (lymph node); assay: MiCK assay, drug-induced apoptosis, Table 4 tumor A1; settings: Table 4 tumor A1: Pancreatic islet cell cancer (lymph node); 48 hours with drug
Protocol: as §4
(§7) Following drug addition, the plate was incubated for 30 min. at 37° C. in a 5% carbon dioxide humidified atmosphere incubator. Each well was then overlayed with sterile mineral oil, and the plate was placed into the incubator chamber of a microplate spectrophotometric reader. The optical density at 600 nanometers was read and recorded every 5 minutes over a period of 48 hours.
(§8) Patients: Three patients were included in this study. Two tumor samples from different tumor sites were collected from each patient. Both samples from each patient were collected on the same day.

[8] = system: Lung adenocarcinoma (solid tumor); assay: MiCK assay, drug-induced apoptosis, Table 4 tumor B2; assay type: cell-based, human; settings: Table 4 tumor B2: Lung adenocarcinoma (solid tumor); 48 hours with drug
Excerpt: as §1
(§3) Patients: Three patients were included in this study. […] Patient A was diagnosed with pancreatic islet cell cancer; sample 1 was collected from lymph node and sample 2 was collected from the primary tumor. Patient B was diagnosed with lung cancer NSCLC adenocarcinoma; sample 1 was collected from pleural effusion and sample 2 was collected from solid tumor. […] Ages of the patients ranged from 51-79 years old with an average age of 65 years. One patient was […] and two were female.

[9] = system: NSCLC, multi-focal, recurrent adenocarcinoma (right lung); assay: MiCK assay, drug-induced apoptosis, Table 3 tumor D1; assay type: cell-based, human; settings: Table 3 tumor D1: NSCLC, multi-focal, recurrent adenocarcinoma (right lung); 48 hours with drug
Excerpt: as §1, §2

[10] = system: NSCLC, bilateral well-differentiated adenocarcinoma (site 1B); assay: MiCK assay, drug-induced apoptosis, Table 3 tumor B2; assay type: cell-based, human; settings: Table 3 tumor B2: NSCLC, bilateral well-differentiated adenocarcinoma (site 1B); 48 hours with drug
Excerpt: as §1, §2

[11] = system: NSCLC, multi-focal adenocarcinoma (site A); assay: MiCK assay, drug-induced apoptosis, Table 3 tumor E1; assay type: cell-based, human; settings: Table 3 tumor E1: NSCLC, multi-focal adenocarcinoma (site A); 48 hours with drug
Excerpt: as §1, §2

[12] = system: Lung small cell carcinoma (site A); assay: MiCK assay, drug-induced apoptosis, Table 4 tumor C1; settings: Table 4 tumor C1: Lung small cell carcinoma (site A); 48 hours with drug
Protocol: as §4, §7, §8

[13] = system: NSCLC, multi-focal, recurrent adenocarcinoma (lymph node); assay: MiCK assay, drug-induced apoptosis, Table 3 tumor D2; assay type: cell-based, human; settings: Table 3 tumor D2: NSCLC, multi-focal, recurrent adenocarcinoma (lymph node); 48 hours with drug
Excerpt: as §1, §2

[14] = system: NSCLC, multi-focal adenocarcinoma (site B); assay: MiCK assay, drug-induced apoptosis, Table 3 tumor E2; assay type: cell-based, human; settings: Table 3 tumor E2: NSCLC, multi-focal adenocarcinoma (site B); 48 hours with drug
Excerpt: as §1, §2

[15] = system: Lung adenocarcinoma (pleural effusion); assay: MiCK assay, drug-induced apoptosis, Table 4 tumor B1; assay type: cell-based, human; settings: Table 4 tumor B1: Lung adenocarcinoma (pleural effusion); 48 hours with drug
Excerpt: as §1, §3

## CC(=O)O[C@@]12CO[C@@H]1C[C@H](O)[C@@]1(C)C(=O)[C@H](O)C3=C(C)[C@@H](OC(=O)[C@H](O)[C@@H](NC(=O)OC(C)(C)C)c4ccccc4)C[C@@](O)([C@@H](OC(=O)c4ccccc4)[C@H]21)C3(C)C [Docetaxel]
[1]
  kinetic units (KU) of apoptosis: 1.10 KU
[2]
  kinetic units (KU) of apoptosis: 2.10 KU
[3]
  kinetic units (KU) of apoptosis: 2.30 KU
[4]
  kinetic units (KU) of apoptosis: 2.65 KU
[5]
  kinetic units (KU) of apoptosis: 0.90 KU
[6]
  kinetic units (KU) of apoptosis: 2.60 KU
[7]
  kinetic units (KU) of apoptosis: 3.20 KU
[8]
  kinetic units (KU) of apoptosis: 2.40 KU
[9]
  kinetic units (KU) of apoptosis: 0.50 KU
[10]
  kinetic units (KU) of apoptosis: 2.00 KU
[11]
  kinetic units (KU) of apoptosis: 0.90 KU
[12]
  kinetic units (KU) of apoptosis: 3.20 KU
[13]
  kinetic units (KU) of apoptosis: 0.70 KU
[14]
  kinetic units (KU) of apoptosis: 0.20 KU
[15]
  kinetic units (KU) of apoptosis: 4.20 KU

## COc1cccc2c1C(=O)c1c(O)c3c(c(O)c1C2=O)C[C@@](O)(C(=O)CO)C[C@@H]3O[C@H]1C[C@H](N)[C@H](O)[C@H](C)O1 [Doxorubicin]
[1]
  kinetic units (KU) of apoptosis: 3.80 KU
[2]
  kinetic units (KU) of apoptosis: 0.90 KU
[3]
  kinetic units (KU) of apoptosis: 1.50 KU
[4]
  kinetic units (KU) of apoptosis: 2.06 KU
[5]
  kinetic units (KU) of apoptosis: 0.80 KU
[6]
  kinetic units (KU) of apoptosis: 1.70 KU
[7]
  kinetic units (KU) of apoptosis: 1.27 KU
[8]
  kinetic units (KU) of apoptosis: 3.50 KU
[9]
  kinetic units (KU) of apoptosis: 1.50 KU
[10]
  kinetic units (KU) of apoptosis: 0.90 KU
[11]
  kinetic units (KU) of apoptosis: 1.60 KU
[12]
  kinetic units (KU) of apoptosis: 1.60 KU
[13]
  kinetic units (KU) of apoptosis: 1.40 KU
[14]
  kinetic units (KU) of apoptosis: 1.50 KU
[15]
  kinetic units (KU) of apoptosis: 3.50 KU

## CC(=O)O[C@H]1C(=O)[C@@]2(C)[C@H]([C@H](OC(=O)c3ccccc3)[C@]3(O)C[C@H](OC(=O)[C@H](O)[C@@H](NC(=O)c4ccccc4)c4ccccc4)C(C)=C1C3(C)C)[C@]1(OC(C)=O)CO[C@@H]1C[C@@H]2O [Paclitaxel]
[1]
  kinetic units (KU) of apoptosis: 1.40 KU
[2]
  kinetic units (KU) of apoptosis: 3.60 KU
[3]
  kinetic units (KU) of apoptosis: 1.00 KU
[4]
  kinetic units (KU) of apoptosis: 2.06 KU
[5]
  kinetic units (KU) of apoptosis: 0.00 KU
[6]
  kinetic units (KU) of apoptosis: 1.70 KU
[7]
  kinetic units (KU) of apoptosis: 3.43 KU
[8]
  kinetic units (KU) of apoptosis: 4.00 KU
[9]
  kinetic units (KU) of apoptosis: 1.40 KU
[10]
  kinetic units (KU) of apoptosis: 0.90 KU
[11]
  kinetic units (KU) of apoptosis: 0.00 KU
[12]
  kinetic units (KU) of apoptosis: 1.70 KU
[13]
  kinetic units (KU) of apoptosis: 0.90 KU
[14]
  kinetic units (KU) of apoptosis: 0.50 KU
[15]
  kinetic units (KU) of apoptosis: 3.00 KU

Reference: patent US20230184744A1, “INTERTUMORAL HOMOGENEITY DETERMINED BY MiCK ASSAY” (Pierian Biosciences, LLC, priority 2014, published 2023)
